For one experiment, the target named is T1, TLR7 (Homo sapiens, UniProt Q9NYK1).
T1 sequence (Q9NYK1 27-1049): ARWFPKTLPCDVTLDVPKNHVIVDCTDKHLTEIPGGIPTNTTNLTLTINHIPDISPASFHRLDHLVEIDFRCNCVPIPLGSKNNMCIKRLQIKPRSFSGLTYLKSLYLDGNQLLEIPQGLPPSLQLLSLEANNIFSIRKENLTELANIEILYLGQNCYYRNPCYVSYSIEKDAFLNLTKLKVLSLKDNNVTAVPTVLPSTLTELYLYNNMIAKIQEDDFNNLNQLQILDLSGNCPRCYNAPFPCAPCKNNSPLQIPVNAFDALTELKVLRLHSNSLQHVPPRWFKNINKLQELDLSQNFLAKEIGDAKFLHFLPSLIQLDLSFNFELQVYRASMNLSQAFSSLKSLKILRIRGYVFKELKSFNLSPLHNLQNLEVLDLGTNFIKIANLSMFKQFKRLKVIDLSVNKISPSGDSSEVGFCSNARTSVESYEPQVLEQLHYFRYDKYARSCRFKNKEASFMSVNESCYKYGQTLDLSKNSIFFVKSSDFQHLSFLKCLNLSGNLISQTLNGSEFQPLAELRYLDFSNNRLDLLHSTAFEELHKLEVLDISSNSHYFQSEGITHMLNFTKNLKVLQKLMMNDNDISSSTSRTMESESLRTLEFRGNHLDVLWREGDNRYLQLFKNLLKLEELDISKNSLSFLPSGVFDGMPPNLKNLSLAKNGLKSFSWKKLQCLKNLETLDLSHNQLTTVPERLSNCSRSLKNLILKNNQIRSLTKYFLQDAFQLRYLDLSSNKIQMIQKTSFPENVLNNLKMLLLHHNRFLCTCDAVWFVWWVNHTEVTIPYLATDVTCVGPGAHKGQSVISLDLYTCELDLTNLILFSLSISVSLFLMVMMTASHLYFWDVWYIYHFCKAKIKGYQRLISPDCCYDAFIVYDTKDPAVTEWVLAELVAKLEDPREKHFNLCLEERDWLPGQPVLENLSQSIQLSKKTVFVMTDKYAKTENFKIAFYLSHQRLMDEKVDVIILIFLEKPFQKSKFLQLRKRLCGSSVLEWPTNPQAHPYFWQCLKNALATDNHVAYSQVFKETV
The experiment is described as follows: Reporter gene assay, HEK-Blue TLR7 reporter cells (SEAP). For orientation: In a reporter assay the amount or activity of a reporter protein is the signal.

For experiment [1], the system named is PBMCs. The experiment is described as follows: PBMC assay, IL-6 release (HTRF). Format: cell-based. The conditions noted are these: PBMCs from healthy donors, overnight, IL-6 induction by HTRF, average of quadruplicate. For orientation: In TR-FRET formats the signal depends on donor and acceptor labels being close together.
For experiment [2], the system named is PBMCs. The experiment is described as follows: PBMC assay, TNF-α release (HTRF). It is filed as cell-based. To be noted: PBMCs from healthy donors, overnight, TNF-α induction by HTRF. The procedure: Whole peripheral blood was obtained from healthy donors. PBMCs were isolated from peripheral blood by density gradient centrifugation. […] Technologies, Vancouver, Canada) and centrifuged at 1200×G for 10 minutes in SepMate™ tubes (#15450, […] Technologies). The plasma layer containing PBMCs was poured into a new tube and washed twice. Isolated PBMCs were either used fresh or thawed from previously frozen. 1×10^5 PBMCs were cultured with titrating concentrations of compounds of Formula I overnight followed by assaying for cytokines by homogeneous time resolved fluorescence (HTRF). Compounds were dissolved in DMSO.

The next experiment deals with T2, TLR8 (Homo sapiens, UniProt Q9NR97).
T2 sequence (Q9NR97 27-1041): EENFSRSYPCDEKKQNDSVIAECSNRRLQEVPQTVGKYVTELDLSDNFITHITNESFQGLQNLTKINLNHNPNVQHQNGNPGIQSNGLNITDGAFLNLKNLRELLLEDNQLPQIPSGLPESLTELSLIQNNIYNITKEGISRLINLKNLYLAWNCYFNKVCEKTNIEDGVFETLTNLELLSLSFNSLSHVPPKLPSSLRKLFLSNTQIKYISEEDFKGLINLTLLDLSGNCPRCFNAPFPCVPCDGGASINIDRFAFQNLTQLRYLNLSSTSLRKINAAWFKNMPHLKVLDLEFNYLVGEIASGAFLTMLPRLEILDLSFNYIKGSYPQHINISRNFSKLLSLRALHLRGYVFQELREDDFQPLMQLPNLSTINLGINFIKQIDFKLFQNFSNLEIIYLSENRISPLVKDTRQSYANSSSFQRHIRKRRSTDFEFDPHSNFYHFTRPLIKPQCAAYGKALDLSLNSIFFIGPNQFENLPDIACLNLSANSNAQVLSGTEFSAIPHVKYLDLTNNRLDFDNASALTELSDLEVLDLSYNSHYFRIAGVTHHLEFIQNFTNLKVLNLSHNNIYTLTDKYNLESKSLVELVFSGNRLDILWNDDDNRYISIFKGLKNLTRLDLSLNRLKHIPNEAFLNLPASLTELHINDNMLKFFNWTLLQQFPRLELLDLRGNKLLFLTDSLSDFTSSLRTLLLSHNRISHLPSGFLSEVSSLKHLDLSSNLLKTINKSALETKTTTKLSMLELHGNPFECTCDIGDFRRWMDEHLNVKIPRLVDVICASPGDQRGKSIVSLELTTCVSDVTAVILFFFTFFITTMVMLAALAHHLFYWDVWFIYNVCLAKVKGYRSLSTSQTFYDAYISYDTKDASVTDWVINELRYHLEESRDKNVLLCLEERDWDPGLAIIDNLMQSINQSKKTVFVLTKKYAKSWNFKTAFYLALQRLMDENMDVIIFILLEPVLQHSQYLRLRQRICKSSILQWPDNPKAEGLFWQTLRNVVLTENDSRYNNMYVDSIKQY
Description: Reporter gene assay, HEK-Blue TLR8 reporter cells (SEAP).

Description for TLR7: (§1) 3×10^4 HEK-Blue™ TLR7 or 3×10^4 TLR8 reporter cells (InvivoGen, San Diego, CA) were treated with titrated (4-fold) amounts of test compound. […] Cells were incubated overnight at 37° C. and 5% CO2, then absorbance (620 and 655 nm) was read on a Synergy™ H1 microplate reader.
Description for TLR8: as §1

A word on the EC50: it is the concentration at which the effect is half-maximal. For the molecule `CCCCc1nc2c(N)nc3ccsc3c2n1Cc1nc(CNCCCCCO)cs1` [Compound 236, 5-(((2-((4-amino-2-butyl-1H-imidazo[4,5-d]thieno[3,2-b]pyridin-1-yl)methyl)thiazol-4-yl)methyl)amino)pentan-1-ol], the EC50 on TLR7 was 310 nM; in the experiment with PBMCs [1], 310 nM; with PBMCs [2], above 1000 nM; on TLR8, 73 nM.

Regarding `CCNCc1nc2c(N)nc3ccsc3c2n1Cc1ccc(CN(CC)CC)cc1` [Compound 269, 1-(4-((diethylamino)methyl)benzyl)-2-((ethylamino)methyl)-1H-imidazo[4,5-d]thieno [3,2-b]pyridin-4-amine], the EC50 at TLR7 was 186 nM; in the experiment on PBMCs [1] it was 557 nM; at TLR8, above 1000 nM.

The record behind these values is patent US20250179088A9 (ZYMEWORKS BC INC., priority 2020, published 2025).
